The text below walks through data of patent US20050222225A1, “Use of compounds for increasing spermatozoa motility” (APPLIED RESEARCH SYSTEMS ARS HOLDING NV, priority 2002, published 2005).

Some results are limits rather than exact numbers.

In assay [1] the test system is C5a-mediated AKT phosphorylation in Raw 264-7 macrophages. Kind of assay: Cell based ELISA: Akt/PKB phosphorylation in macrophages after stimulation with C5a. To be noted: Mus musculus, 50 nM C5a; for inhibition at 10 µM: RAW264.7, compound at 10 μM; for inhibition at 1 µM: RAW264.7, compound at 1 μM. The procedure:
b) Cell Based ELISA to Monitor PI3K Inhibition: Measurement of Akt/PKB phosphorylation in macrophages after stimulation with C5a: Raw 264: Raw 264-7 macrophages (cultured in DMEM-F12 medium containing 10% Fetal Calf serum and antibiotics) are plated at 20'000 cells/well in a 96 MTP 24 h before cell stimulation. Previous to the stimulation with 50 nM of Complement 5a (C5a; which is a well known chemokine which stimulates the used cells) during 5 minutes, Cells are serum starved for 2 h, and pretreated with inhibitors for 20 minutes. After stimulation cells are fixed in 4% formaldehyde for 20 minutes and washed 3 times in PBS containing 1% Triton X-100 (PBS/Triton). Endogenous peroxidase is blocked by a 20 minutes incubation in 0.6% H2O2 and 0.1% Sodium Azide in PBS/Triton and washed 3 times in PBS/Triton. Cells are then blocked by 60 minutes incubation with 10% fetal calf serum in PBS/Triton. Next, phosphorylated Akt/PKB is detected by an overnight incubation at 4° C. with first antibody (anti phospho Serine 473 Akt IHC, Cell Signaling) diluted 800-fold in PBS/Triton, containing 5% bovine serum albumin (BSA). After 3 washes in PBS/Triton, cells are incubated for 60 minutes with a peroxidase conjugated goat-anti-rabbit antibody (1/400 dilution in PBS/Triton, containing 5% BSA), washed 3 times in PBS/Triton, and 2 times in PBS and further incubated in 100 μl of substrate reagent solution (R&D) for 20 minutes. The reaction is stopped by addition of 50 μl of 1 M H2SO4 and absorbance is read at 450 nm. The values indicated reflect the percentage of inhibition of AKT phoshorylation as compared to basal level. Said values show a clear effect of the azolidinone-vinyl fused-benzene compounds on the activation of AKT phosphorylation in macrophages.
In general terms: In an ELISA, binding on a coated surface is turned into a signal by an enzyme label.

Assay [2] relates to spermatozoa. Kind of assay: Sperm cell parameters by computer aided sperm analysis (CASA). In kind it is cell-based, human. To be noted: 10 μM; sperm samples from oligo-asthenospermic subjects; vs control sample. From the text:
In the experiments the following examples are based on, standard methods of in vitro fertilization have been used. With regard to the details of these methods, reference is made to the “WHO manual” (WHO laboratory manual for the examination of human semen and sperm-cervical mucus interactions, 4th edition, Cambridge University Press 1999). In particular, the direct swim-up method can be taken from pp. 104 to 106 of this manual.
b) Effect of Example 1 Compound on Further Sperm Cell Parameters:
These parameters are determined by computer aided sperm analysis (CASA) in sperm samples from different oligo-asthenospermic subjects.

Assay [3] concerns the target Human recombinant GST-PI3Kγ (Homo sapiens, UniProt P48736). Kind of assay: High Throughput PI3K Lipid Kinase Assay (scintillation proximity assay, neomycin-coated beads). It counts as biochemical. As to the method:
A. a) High Throughput PI3K Lipid Kinase Assay (Binding Assay):
The assay combines the scintillation proximity assay technology (SPA, Amersham) with the capacity of neomycin (a polycationic antibiotic) to bind phospholipids with high affinity and specificity. The Scintillation Proximity Assay is based on the properties of weakly emitting isotopes (such as ^3H, ^125I, ^33P). Coating SPA beads with neomycin allows the detection of phosphorylated lipid substrates after incubation with recombinant PI3K and radioactive ATP in the same well, by capturing the radioactive phospholipids to the SPA beads through their specific binding to neomycin.
To a 384 wells MTP containing 5 μl of the test compound of formula (I) (solubilized in 6% DMSO; to yield a concentration of 100, 30, 10, 3, 1, 0.3, 0.1, 0.03, 0.01, 0.001 μM of the test compound), the following assay components are added. 1) 5 μl (58 ng) of Human recombinant GST-PI3Kγ (in Hepes 40 mM, pH 7.4, DTT 1 mM and ethylenglycol 5%) 2) 10 μl of lipid micelles and 3) 10 μl of Kinase buffer ([^33P]ATP 45 μM/60 nCi, MgCl2 30 mM, DTT 1 mM, β-Glycerophosphate 1 mM, Na3VO4 100 μM, Na Cholate 0.3%, in Hepes 40 mM, pH 7.4). […] After precipitation of the neomycin-coated PVT SPA beads for 5 minutes at 1500×g, radioactive PtdIns(3)P is quantified by scintillation counting in a Wallac MicroBeta™ plate counter. […]
(Scintillation proximity formats need no separation of bound from free tracer.)

Chain of Human recombinant GST-PI3Kγ (P48736 whole entry): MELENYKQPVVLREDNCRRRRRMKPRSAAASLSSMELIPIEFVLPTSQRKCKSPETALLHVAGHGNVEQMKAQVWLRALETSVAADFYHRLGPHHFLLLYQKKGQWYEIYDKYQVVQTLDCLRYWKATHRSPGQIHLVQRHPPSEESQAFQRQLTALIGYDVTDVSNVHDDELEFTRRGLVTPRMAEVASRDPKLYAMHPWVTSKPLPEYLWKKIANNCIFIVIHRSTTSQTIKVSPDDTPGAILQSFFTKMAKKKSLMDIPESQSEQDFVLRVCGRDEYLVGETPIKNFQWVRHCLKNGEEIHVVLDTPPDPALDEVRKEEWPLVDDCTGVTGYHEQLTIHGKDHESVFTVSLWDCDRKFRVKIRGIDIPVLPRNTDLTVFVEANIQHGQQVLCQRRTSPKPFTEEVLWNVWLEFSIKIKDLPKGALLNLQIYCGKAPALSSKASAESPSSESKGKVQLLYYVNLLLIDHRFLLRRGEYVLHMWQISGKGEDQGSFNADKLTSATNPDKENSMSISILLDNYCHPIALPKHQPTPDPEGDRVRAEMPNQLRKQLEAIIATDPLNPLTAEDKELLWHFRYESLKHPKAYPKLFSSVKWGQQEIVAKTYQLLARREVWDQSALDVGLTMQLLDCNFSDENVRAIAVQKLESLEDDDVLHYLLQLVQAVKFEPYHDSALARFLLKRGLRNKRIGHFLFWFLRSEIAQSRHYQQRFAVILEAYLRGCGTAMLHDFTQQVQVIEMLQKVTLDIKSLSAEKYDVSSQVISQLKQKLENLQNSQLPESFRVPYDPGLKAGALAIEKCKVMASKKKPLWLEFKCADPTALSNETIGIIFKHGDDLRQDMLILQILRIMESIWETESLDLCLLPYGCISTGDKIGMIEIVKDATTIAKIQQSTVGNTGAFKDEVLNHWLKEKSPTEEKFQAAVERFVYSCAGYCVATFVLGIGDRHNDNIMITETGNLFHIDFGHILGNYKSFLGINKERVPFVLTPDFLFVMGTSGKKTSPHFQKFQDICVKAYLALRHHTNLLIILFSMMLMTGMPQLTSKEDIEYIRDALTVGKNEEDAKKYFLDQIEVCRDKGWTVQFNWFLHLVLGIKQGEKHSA

In general, inhibition refers to the drop in the measured response relative to a control, in per cent. The low end stands for a weak effect, the high end for a strong effect. The compound `O=C1NC(=O)/C(=C/c2ccc3c(c2)OCO3)S1` [Example 1, 5-(1,3-benzodioxol-5-ylmethylene)-1,3-thiazolidine-2,4-dione] yielded an inhibition at 10 µM in assay [1] of roughly 100%. In assay [2], the “average path velocity (VAP)” value is given as “increased in a statistically significant manner”, the “hyper-activated sperm fraction (HA)” value is on record as “increased in a statistically significant manner”, the “percentage curvilinear velocity (VCL)” value was “increased in a statistically significant manner” and the “straight-line velocity (VSL)” value is on record as “increased in a statistically significant manner”. `CN(C)c1ncnc2ccc(/C=C3\SC(=O)NC3=O)cc12` [Example 17, 5-(4-Dimethylamino-quinazolin-6-ylmethylene)-thiazolidine-2,4-dione] registered an inhibition at 1 µM in assay [1] of 95%. In assay [1], `O=C1NC(=O)C(=Cc2ccc3ncnc(N4CCCCC4)c3c2)S1` [Example 19, 5-[(4-piperidin-1-ylquinazolin-6-yl)methylene]-1,3-thiazolidine-2,4-dione] came in with an inhibition at 1 µM of 95% and an inhibition at 10 µM of roughly 100%. Usually IC50 stands for the concentration needed to halve the response being measured. Turning to `N=C1NC(=O)/C(=C/c2ccc3ncnc(N4CCCCC4)c3c2)S1` [Example 41, 2-Imino-5-(4-piperidine-quinazolin-6-ylmethylene)-thiazolidin-4-one], in assay [3], the IC50 is less than 1000 nM.

As to `N=C1NC(=O)/C(=C/c2ccc3nccnc3c2)S1` [Example 66, 2-Imino-5-quinoxalin-6-ylmethylene-thiazolidin-4-one], in assay [1], the inhibition at 10 µM was roughly 100%. As for `O=C1NC(=O)/C(=C/c2ccc3occ(/C=C/C(=O)N4CCCCC4)c3c2)S1` [Example 73, 5-[3-(3-Oxo-3-piperidin-1-yl-propenyl)-benzofuran-5-ylmethylene]-thiazolidine-2,4-dione], the inhibition at 1 µM in assay [1] is 95%. Compound `O=C1NC(=O)/C(=C/c2ccc3nsnc3c2)S1` [Example 107, 5-Benzo[1,2,5]thiadiazol-5-ylmethylene-thiazolidine-2,4-ione] yielded an inhibition at 10 µM in assay [1] of roughly 100%. Also, the IC50 in assay [3] is less than 1000 nM.
